Consider one molecule from patent publication US20130156753A1 (UNIVERSITY OF ROCHESTER, priority 2010, published 2013).

Assay [1] deals with HDAC5 nuclear export. As to the kind of experiment: PMA-induced GFP-HDAC5 nuclear export in Cos7 cells (fluorescence microscopy). Format: cell-based. The procedure:
A, B, Cos7 cells were co-transfected with expression vectors encoding GFP-tagged HDAC5 (GFP-HDAC5) and constitutively active protein kinases as indicated, and then exposed to phorbol-12-myristate-13-acetate (PMA, […]) for 3 hours. […] A-F, The cells were fixed and the subcellular localization of GFP-HDAC5 was visualized by fluorescence microscopy.
C, D, Cos7 cells were transfected with GFP-HDAC5-WT or GFP-HDAC5-S280D and then exposed to PMA for 3 hours. GFP-HDAC5-S280D but not GFP-HDAC5-WT was resistant to PMA-induced nuclear export. *, p<0.05 versus without PMA, n=4. E, F, Cos7 cells were transfected with Flag-HDAC5-WT or Flag-HDAC5-S280A mutant, and then pretreated with forskolin followed with the exposure to PMA. Phosphorylation of HDAC5 in cell lysates was analyzed by immunoblotting with phospho-specific HDAC5 antibodies that recognize the HDAC5 phosphorylated at Ser259 (E) and Ser498 (F). G, H, Cos7 cells were transfected with Flag-HDAC5-WT, Flag-HDAC5-S280A or Flag-HDAC5-S280D, and then pretreated with forskolin, followed with the exposure to PMA. Coimmunoprecipitation of Flag-HDAC5 in cell lysates and then immunoblotting with anti-14-3-3 beta and anti-Flag antibodies in immunoprecipitates were performed. 14-3-3 in total cell lysates (5% of the input) was determined by immunoblotting with anti-14-3-3 antibodies. Representative blots are shown, n=3.
The cells were fixed and GFP-HDAC5 localization was analyzed by fluorescence microscopy.
For analysis of GFP-HDAC5 subcellular localization in NRVMs and Cos7 cells, cells were plated in the presence of adenovirus (multiplicity of infection, 50 to 100) on 35 mm dishes containing DMEM plus 10% FBS as previously described (Vega R B, et al. (2004) Protein kinases C and D mediate agonist-dependent cardiac hypertrophy through nuclear export of histone deacetylase 5. Mol Cell Biol 24(19):8374-8385).
After 24 hour culture, cells were maintained in serum-free DMEM medium for additional 24 hours, and then exposed to various inducers or inhibitors (for 30 minutes) prior to PE or PMA stimulation for indicated times. The cells were washed with PBS and fixed with 3.7% formaldehyde in PBS. Images were captured at a magnification of ×60, using a fluorescence microscope (Olympus BX51) equipped with a digital camera and Spot software system (RT Color Diagnostic Instruments). For analysis of the myocyte marker, sarcomeric α-actinin antibody and DAPI in neonatal cardiomyocyte, immunocytochemistry were performed according to a standard protocol. For subcellular localization of endogenous HDAC5 in cardiomyocyes, we fixed cells and used the detergent Saponin (Sigma, 84510) to make cells permeable, and then performed immunocytochemistry with anti-HDAC5 antibody (Santa Cruz, sc-11419). For subcellular localization of HDAC5, total around 200 cells were counted in each condition. For cardiomyocyte size, total myocyte surface areas were calculated using NIH Image J software, and expressed as the average of 100 randomly selected cells per condition.

Assay [2] relates to ANF, β-MHC, α-SMA expression. As to the kind of experiment: RT-PCR of cardiac fetal gene expression in NRVMs. It counts as cell-based, rat. The conditions noted are these: PE 24 hours. The procedure:
(§1) The mRNA was extracted from the cell lysates and then RT-PCR with the primers for ANF, β-MHC, α-SMA, and GADPH (internal control) was performed. *, p<0.05 versus PE+Ad-GFP; #, p<0.05 versus PE+GFP-HDAC5-WT, n=4.
The mRNA was extracted from the cell lysates, and quantitative RT-PCR with the primers for ANF and GADPH (internal control) were performed as described in the Examples. Quantitative data are shown (n=4).
Total RNA was isolated from NRVM using TRIzol (Invitrogen Corp.). Firststrand cDNA was synthesized with the SuperScript Preamplification System (Gibco-BRL). cDNA was amplified by PCR for 30 cycle (Applied Biosystem) as described previously (4, 5). Rat GAPDH served as an internal control. The following oligonucleotide primers were used in this study: rat ANF, sense 5′-[…]-3′ (SEQ ID NO:11) and antisense 5′-[…]-3′(SEQ ID NO:12) rat α-SMA, sense 5′-[…]-3′ (SEQ ID NO:13) and antisense 5′-[…]-3′ (SEQ ID NO:14); rat β-MHC (myosin heavy chain), sense 5′-[…]-3′ (SEQ ID NO:15) and antisense 5′-[…]-3′ (SEQ ID NO:16); rat GAPDH, sense 5′-[…]-3′ (SEQ ID NO:17) and antisense 5′-[…]-3′ (SEQ ID NO:18). Experiments were repeated three times.

Assay [3] relates to MEF2 transcriptional activity. The experiment in a line: 3xMEF2-luciferase reporter assay in NRVMs. Format: cell-based, rat. The settings on record: PE 24 hours. The procedure:
as §1
To assess MEF2 and CREB transcriptional activation, an adenovirus was used that encoded a 3×MEF2-dependent reporter gene in which three tandem repeats of MEF2 sites were located upstream of the thymidine kinase gene promoter and plasmid encoding CREB-dependent reporter gene. NRVMs or Cos7 cells cultured in 24-well were co-transfected with 3×MEF2 or CREB luciferase reporter gene and adenovirus encoding LacZ or GFP-HDAC5-WT, GFP-HDAC5-S280A mutant and GFP-HDAC5-S280D mutant. […] The luciferase activities in cell lysates were determined using the Dual-Luciferase Reporter Assay kit (Promega) and Wallac 1420 multi-label counter (PerkinElmer) as described previously (4, 5).
(A reporter such as luciferase makes a cellular process visible.)

On to `CCCC(=O)Nc1ncnc2c1ncn2[C@@H]1O[C@@H]2COP(=O)(O)O[C@H]2[C@H]1OC(=O)CCC` [cAMP, Dibutyryl-cAMP], for which the “PMA-induced HDAC5 nuclear export” value in assay [1] (GFP-HDAC5-WT, pretreatment, then PMA for 3 hours) is recorded as “totally blocked HDAC5 nuclear export”. Further, the “PMA-induced nuclear export of GFP-HDAC5-S280A” value in assay [1] (S280A mutant, cAMP pretreatment, PMA 3 hours) is “inhibited nuclear export of GFP-HDAC5-WT but not GFP-HDAC5-S280A”. In addition, in assay [2] (NRVMs with GFP-HDAC5-WT, cAMP pretreatment), the “PE-elevated expression of ANF, β-MHC and α-SMA” value is recorded as “blocked this elevated gene expression”. Further, the “PE-induced ANF expression (quantitative RT-PCR)” value in assay [2] (NRVMs, cAMP 30 min) is reported as “decreases PE-induced ANF expression”. Also, the “decrease in MEF2 transcriptional activation with HDAC5-S280A” value in assay [3] (NRVMs co-infected with adenoviral GFP-HDAC5-S280A) was “abolished the decrease in MEF2 transcriptional activation by cAMP”. For the same molecule, the “PE-stimulated MEF2 transcriptional activity” value in assay [3] (NRVMs with GFP alone or GFP-HDAC5-WT, 30 min pretreatment) is “significantly inhibited PE-stimulated MEF2 transcriptional activity”.
